In brackets after ≈: the same amount, converted by molar mass.
How the values were obtained:
JNK = experiment: Western blot, phosphorylated and total JNK; type: cell-based, human; details: HCT116, western blot
Excerpt: To further elucidate the mechanism by which 8a inhibits proliferation and induces apoptosis of HCT116 cells, the levels of phosphorylated and total JNK protein were examined by western blot analysis. […] Phosphorylation of JNK activated by the ROS pathway results in overexpression of tumor suppressor factors, thereby inducing apoptosis. In addition, JNK phosphorylation is associated with ROS production. To determine whether ROS production contributes to JNK1/2 phosphorylation and its related mechanisms, we blocked 8a-induced ROS production in HCT116 cells and then analyzed the changes in JNK 1/2 phosphorylation by western blotting. […] Furthermore, pre-treatment of cells with NAC reduced the levels of p-JNK induced by 8a.
(§1) The expression of signaling pathway-related proteins was detected by western blot analysis. Cell (1 × 10^6) were plated in 90-mm dishes and treated with 8a for 24 h. The cells were treated with NAC in the same way as in step 4.7. Resuspend the cells in Buffer A (1 mM EDTA, 1 mM PMSF, 0.28 μg/mL apotinin, 50 μg/mL leupeptin, 7 μg/mL pepstain A) and transferred to a 1 mL glass homogenizer and pull up and down 30 times in an ice bath. Cells were collected and centrifuged (1000 g × 10 min, 4 °C). The obtained supernatant and precipitate were the crude cytoplasm and mitochondria, respectively. The cytosolic fraction was transferred to an ultra-ion tube and centrifuged (100,000g × 1 hr, 4 °C), and the resulting supernatant was the purified cytosolic fraction. The mitochondrial pellet was resuspended in Buffer B (1mM EGTA, 1mM PMSF, 0.28 μg/mL apotinin, 50 μg/mL leupeptin, 7 μg/mL pepstain A), centrifuged (10,000g × 10 min, 4 °C), and repeated 3 times. The mitochondria pellet was lysed in cell lysate buffer (1% NP-40, 2 μg/mL aprotinin, 2 μg/mL leupeptin, 1mM EDTA, 1mM Na vanadate). Protein concentrations in the supernatant were determined by using a Minbio BCA protein assay kit. Protein were separated by SDS-PAGE and transferred to a PVDF membrane. The membrane was blocked, and incubated with primary detection antibodies overnight at 4 °C. […]

HL-7702 = experiment: MTT cell proliferation assay, normal liver cells HL-7702; type: cell-based; details: L02, HL-7702 normal human hepatocyte, 48 h
Method: (§2) The effects of the synthesized amide anthraquinone derivatives on the proliferative activity of eight human cancerous cell lines (EC9706, MCF-7, SGC-7901, HepG2, QBC939, HeLa, HCT116 and SW480) in addition to two normal human cell lines (colorectal FHC and liver HL7702) were evaluated using the standard MTT assay.
(§3) The human esophageal cancer cell line EC9706 was obtained from Cancer Hospital and Institute by Prof. Ming Rong Wang, Chinese Academy Medical of Sciences. The human colorectal carcinoma cell lines HCT116 and SW480, hepatoma cell line HepG2, cervical carcinoma cell line HeLa, breast cancer cell line MCF-7, gastric cancer cell line SGC-7901, cholangiocarcinoma cell line QBC939, normal fetal colon cell line FHC and liver cell line HL-7702 were obtained from the Cell Bank of the Shanghai Chinese Academy of Sciences. All cells were cultured in RPMI 1640 medium containing 100 U/mL penicillin and streptomycin and 10% fetal bovine serum and maintained at 37°C under a 5% CO2 atmosphere.
(§4) We analyzed the inhibitory effects of eight anthraquinone-amino acid derivatives on the proliferation of eight tumor cell lines and two normal cell lines in vitro using MTT assays. Cells were added to a 96-well plate with (5,000 cells per well in 100 µL RPMI-1640 medium). Cells were treated with different concentrations (10–100 μg/mL) of 8a–8h for 48 h and then incubated with 20 μL MTT (5 mg/mL) for another 4 h at 37°C. DMSO (150 μL) was then added to each well to dissolve the formazan crystals. The absorbance of each well was read at 490 nm on a microtiter plate ELISA reader. The mean values were obtained from a minimum of three parallel experiments. IC50 values were calculated.

cytochrome c = experiment: Western blot, cytochrome c in cytoplasm and mitochondria; type: cell-based, human; details: 10 or 20 μg/mL, 24 h, HCT116, western blot
Method: Decreased mitochondrial membrane potential is a hallmark of early cell apoptosis, and a decrease in mitochondrial membrane potential leads to the release of certain mitochondrial proteins, such as cytochrome c, which mediate apoptosis. Therefore, we examined changes in mitochondrial membrane potential by flow cytometry. HCT116 cells were treated with 8a (10 or 20 μg/mL) for 24 h and then stained with 2 μg/mL JC-1 for 30 min prior to flow cytometric analysis. Green /orange fluorescence ratio of JC-1, compare with control, is 200% and 494.4%, respectively (Figure 8E,F). […] During apoptosis, mitochondrial cytochrome C is released into the cytoplasm and triggers the activation cascade of caspase. HCT116 cells were collected after 8a treatment, cytoplasmic protein and mitochondrial protein were extracted. The levels of cytochrome c in the cytoplasm and mitochondria were detected by Western blotting. After treatment of HCT116 cells with 8a (10 or 20 μg/mL) for 24 h, cytoplasmic levels of cytochrome c increased, while the levels in the mitochondria decreased.
The expression of signaling pathway-related proteins was detected by western blot analysis. Cell (1 × 10^6) were plated in 90-mm dishes and treated with 8a for 24 h. The cells were treated with NAC in the same way as in step 4.7. […] Protein concentrations in the supernatant were determined by using a Minbio BCA protein assay kit. […]

SW480 = experiment: MTT cell proliferation assay, SW480; type: cell-based; details: Homo sapiens, SW480 colon cancer, 48 h
Method: as §2, §3, §4

FHC = experiment: MTT cell proliferation assay, normal colorectal cells FHC; type: cell-based; details: FHC normal human colorectal mucosa, 48 h
Method: as §2, §3, §4

Bcl-2, Bcl-xL and Bax = experiment: Western blot, Bcl-2 family proteins; type: cell-based, human; details: HCT116, western blot
Method: In addition, the expression of apoptosis-related proteins after 8a treatment was detected by western blot. Previous studies have shown that the Bcl-2 protein family is one of the most interesting oncogene-related proteins in programmed cell death. Therefore, we analyzed the levels of Bcl-2, Bcl-xL and Bax after 24 h of treatment with different concentrations (0, 10, 20, and 40 μg/mL) 8a. […] Moreover, the phosphorylation levels of Bcl-2 and Bcl-xL increased with increasing 8a concentration.
as §1, with “°C. After washing three times with TBS-T, the membranes were incubated with the secondary detection antibody.” for “°C.”

HeLa = experiment: MTT cell proliferation assay, HeLa; type: cell-based; details: Homo sapiens, HeLa cervical cancer, 48 h
Method: as §2, §3, §4

MCF-7 = experiment: MTT cell proliferation assay, MCF-7; type: cell-based; details: Homo sapiens, MCF7, MCF-7 breast cancer, 48 h
Method: as §2, §3, §4

SGC-7901 = experiment: MTT cell proliferation assay, SGC-7901; type: cell-based, human; details: Homo sapiens, SGC-7901, 48 h, SGC-7901 gastric cancer, read-out: IC50
Method: as §2, §3, §4

SMILES: CC(C)CC(NC(=O)c1ccc2c(c1[N+](=O)[O-])C(=O)c1ccccc1C2=O)C(=O)O (centres unmarked) [Compound 8a, N-[(9,10-dihydro-1-nitro-9,10-dioxo-2-anthracenyl)carbonyl-leucine]]
- levels of phosphorylated JNK (JNK; 20 μg/mL, time course): gradually increased with time
- total JNK levels (JNK; 20 μg/mL, time course): not altered
- levels of p-JNK induced by 8a after NAC pre-treatment (JNK; 8a 20 μg/mL with NAC pre-treatment): reduced
- IC50 (HL-7702): > 1000 µg/mL
- cytochrome c levels in the mitochondria (cytochrome c): decreased
- cytoplasmic levels of cytochrome c (cytochrome c): increased
- IC50 (SW480): 31.09 ± 0.1 µg/mL (≈ 75.8 µM)
- IC50 (FHC): > 1000 µg/mL
- Bax expression (Bcl-2, Bcl-xL and Bax; 0, 10, 20, 40 μg/mL, 24 h): increased
- levels of Bcl-2 and Bcl-xL (Bcl-2, Bcl-xL and Bax; 0, 10, 20, 40 μg/mL, 24 h): gradually decreased
- phosphorylation levels of Bcl-2 and Bcl-xL (Bcl-2, Bcl-xL and Bax; with increasing 8a concentration): increased
- IC50 (HeLa): 29.75 ± 0.15 µg/mL (≈ 72.5 µM)
- IC50 (MCF-7): 33.34 ± 0.28 µg/mL (≈ 81.2 µM)
- IC50 (SGC-7901): 55.82 ± 0.16 µg/mL (≈ 136 µM)

Source: paper PMC7180728, “Novel Anthraquinone Compounds Inhibit Colon Cancer Cell Proliferation via the Reactive Oxygen Species/JNK Pathway” (Molecules, 2020)
